Square brackets hold non-standard residues; d marks the D form. Peptide text beside a SMILES is read from it. * marks the point of attachment. dDip = N[C@@H](C(=O)O)C(c1ccccc1)c1ccccc1; Dip = N[C@H](C(=O)O)C(c1ccccc1)c1ccccc1; Orn = NCCC[C@H](N)C(=O)O; Ms = CS(=O)(=O)*
Experiment: Inhibition of ET-1 stimulated arachidonic acid release in rabbit renal vascular smooth muscle cells

Structure (SMILES) | IC50 [nM]
CC[C@H](C)[C@H](NC(=O)[C@H](C)NC(=O)[C@H](CC(C)C)NC(=O)[C@@H](NC(C)=O)C(c1ccccc1)c1ccccc1)C(=O)N[C@H](C(=O)N[C@@H](Cc1c[nH]c2ccccc12)C(=O)O)[C@@H](C)CC [(S)-2-[(2S,3S)-2-((2S,3S)-2-{(S)-2-[(S)-2-((S)-2-Acetylamino-3,3-diphenyl-propionylamino)-4-methyl-pentanoylamino]-propionylamino}-3-methyl-pentanoylamino)-3-methyl-pentanoylamino]-3-(1H-indol-3-yl)-propionic acid] (Ac-[Dip]LAIIW-OH) | 70
CC[C@H](C)[C@H](NC(=O)[C@H](CC(=O)O)NC(=O)[C@@H](Cc1ccccc1)NC(=O)[C@@H](NC(C)=O)C(c1ccccc1)c1ccccc1)C(=O)N[C@H](C(=O)N[C@@H](Cc1c[nH]c2ccccc12)C(=O)O)[C@@H](C)CC [(S)-3-[(R)-2-((S)-2-Acetylamino-3,3-diphenyl-propionylamino)-3-phenyl-propionylamino]-N-((1S,2S)-1-{(1S,2S)-1-[(S)-1-carboxy-2-(1H-indol-3-yl)-ethylcarbamoyl]-2-methyl-butylcarbamoyl}-2-methyl-butyl)-succinamic acid] | 520
CC[C@H](C)[C@H](NC(=O)[C@H](CC(=O)O)NC(=O)[C@H](CC(C)C)NC(=O)[C@H](NC(C)=O)C(c1ccccc1)c1ccccc1)C(=O)N[C@H](C(=O)N[C@@H](Cc1c[nH]c2ccccc12)C(N)=O)[C@@H](C)CC [(S)-3-[(S)-2-((S)-2-Acetylamino-3,3-diphenyl-propionylamino)-4-methyl-pentanoylamino]-N-((1S,2S)-1-{(1S,2S)-1-[(S)-1-carbamoyl-2-(1H-indol-3-yl)-ethylcarbamoyl]-2-methyl-butylcarbamoyl}-2-methyl-butyl)-succinamic acid] (Ac-[dDip]LDIIW-NH2) | 6000
CC[C@H](C)[C@H](NC(=O)[C@H](CC(=O)O)NC(=O)[C@H](CC(C)C)NC(=O)[C@H](NC(C)=O)C(c1ccccc1)c1ccccc1)C(=O)N[C@@H](Cc1ccccc1)C(=O)N[C@@H](Cc1c[nH]c2ccccc12)C(=O)O [(S)-3-[(S)-2-((S)-2-Acetylamino-3,3-diphenyl-propionylamino)-4-methyl-pentanoylamino]-N-((1S,2S)-1-{(S)-1-[(S)-1-carboxy-2-(1H-indol-3-yl)-ethylcarbamoyl]-2-phenyl-ethylcarbamoyl}-2-methyl-butyl)-succinamic acid] | > 10000
CC[C@H](C)[C@H](NC(=O)[C@H](CC(=O)O)NC(=O)[C@H](CC(C)C)NC(=O)[C@H](NC(C)=O)C(c1ccccc1)c1ccccc1)C(=O)N[C@@H](CC(C)C)C(=O)N[C@@H](Cc1c[nH]c2ccccc12)C(=O)O [(S)-3-[(S)-2-((S)-2-Acetylamino-3,3-diphenyl-propionylamino)-4-methyl-pentanoylamino]-N-((1S,2S)-1-{(S)-1-[(S)-1-carboxy-2-(1H-indol-3-yl)-ethylcarbamoyl]-3-methyl-butylcarbamoyl}-2-methyl-butyl)-succinamic acid] | 340
CC[C@H](C)[C@H](NC(=O)[C@H](CC(=O)O)NC(=O)[C@H](CC(C)C)NC(=O)[C@@H](NC(C)=O)C(c1ccccc1)c1ccccc1)C(=O)N[C@@H](CCCCN)C(=O)N[C@@H](Cc1c[nH]c2ccccc12)C(=O)O [(S)-3-[(S)-2-((S)-2-Acetylamino-3,3-diphenyl-propionylamino)-4-methyl-pentanoylamino]-N-((1S,2S)-1-{(S)-5-amino-1-[(S)-1-carboxy-2-(1H-indol-3-yl)-ethylcarbamoyl]-pentylcarbamoyl}-2-methyl-butyl)-succinamic acid] (Ac-[Dip]LDIKW-OH) | > 10000
CC[C@H](C)[C@H](NC(=O)[C@@H](NC(=O)[C@H](CC(=O)O)NC(=O)[C@H](CC(C)C)NC(=O)[C@@H](NC(C)=O)C(c1ccccc1)c1ccccc1)C(C)C)C(=O)N[C@@H](Cc1c[nH]c2ccccc12)C(=O)O [(S)-3-[(S)-2-((S)-2-Acetylamino-3,3-diphenyl-propionylamino)-4-methyl-pentanoylamino]-N-((S)-1-{(1S,2S)-1-[(S)-1-carboxy-2-(1H-indol-3-yl)-ethylcarbamoyl]-2-methyl-butylcarbamoyl}-2-methyl-propyl)-succinamic acid] (Ac-[Dip]LDVIW-OH) | 29
CC[C@H](C)[C@H](NC(=O)[C@H](Cc1ccccc1)NC(=O)[C@H](CC(=O)O)NC(=O)[C@H](CC(C)C)NC(=O)[C@@H](NC(C)=O)C(c1ccccc1)c1ccccc1)C(=O)N[C@@H](Cc1c[nH]c2ccccc12)C(=O)O [(S)-3-[(S)-2-((S)-2-Acetylamino-3,3-diphenyl-propionylamino)-4-methyl-pentanoylamino]-N-((S)-1-{(1S,2S)-1-[(S)-1-carboxy-2-(1H-indol-3-yl)-ethylcarbamoyl]-2-methyl-butylcarbamoyl}-2-phenyl-ethyl)-succinamic acid] (Ac-[Dip]LDFIW-OH) | 160
CC[C@H](C)[C@H](NC(=O)[C@H](C)NC(=O)[C@H](CC(=O)O)NC(=O)[C@H](CC(C)C)NC(=O)[C@H](NC(C)=O)C(c1ccccc1)c1ccccc1)C(=O)N[C@@H](Cc1c[nH]c2ccccc12)C(=O)O [(S)-3-[(S)-2-((S)-2-Acetylamino-3,3-diphenyl-propionylamino)-4-methyl-pentanoylamino]-N-((S)-1-{(1S,2S)-1-[(S)-1-carboxy-2-(1H-indol-3-yl)-ethylcarbamoyl]-2-methyl-butylcarbamoyl}-ethyl)-succinamic acid] | 420
CC[C@H](C)[C@H](NC(=O)[C@H](CCCCN)NC(=O)[C@H](CC(=O)O)NC(=O)[C@H](CC(C)C)NC(=O)[C@H](NC(C)=O)C(c1ccccc1)c1ccccc1)C(=O)N[C@@H](Cc1c[nH]c2ccccc12)C(=O)O [(S)-3-[(S)-2-((S)-2-Acetylamino-3,3-diphenyl-propionylamino)-4-methyl-pentanoylamino]-N-((S)-5-amino-1-{(1S,2S)-1-[(S)-1-carboxy-2-(1H-indol-3-yl)-ethylcarbamoyl]-2-methyl-butylcarbamoyl}-pentyl)-succinamic acid] | > 10000
CC[C@H](C)[C@H](NC(=O)[C@H](CC(=O)O)NC(=O)[C@H](CC(C)C)NC(=O)[C@H](NC(C)=O)C(c1ccccc1)c1ccccc1)C(=O)N[C@H](C(=O)N[C@@H](Cc1ccccc1)C(=O)O)[C@@H](C)CC [(S)-3-[(S)-2-((S)-2-Acetylamino-3,3-diphenyl-propionylamino)-4-methyl-pentanoylamino]-N-{(1S,2S)-1-[(1S,2S)-1-(1-carboxy-2-phenyl-ethylcarbamoyl)-2-methyl-butylcarbamoyl]-2-methyl-butyl}-succinamic acid] | > 10000
CC[C@H](C)[C@H](NC(=O)[C@H](CC(=O)O)NC(=O)[C@H](CCCN)NC(=O)[C@@H](NC(C)=O)C(c1ccccc1)c1ccccc1)C(=O)N[C@H](C(=O)N[C@@H](Cc1c[nH]c2ccccc12)C(=O)O)[C@@H](C)CC [(S)-3-[(S)-2-((S)-2-Acetylamino-3,3-diphenyl-propionylamino)-5-amino-pentanoylamino]-N-((1S,2S)-1-{(1S,2S)-1-[(S)-1-carboxy-2-(1H-indol-3-yl)-ethylcarbamoyl]-2-methyl-butylcarbamoyl}-2-methyl-butyl)-succinamic acid] (Ac-[Dip][Orn]DIIW-OH) | 30
CC[C@H](C)[C@H](NC(=O)[C@H](CC(=O)O)NC(=O)[C@H](CCCNC(=N)N)NC(=O)[C@H](NC(C)=O)C(c1ccccc1)c1ccccc1)C(=O)N[C@H](C(=O)N[C@@H](Cc1c[nH]c2ccccc12)C(=O)O)[C@@H](C)CC [(S)-3-[(S)-2-((S)-2-Acetylamino-3,3-diphenyl-propionylamino)-5-guanidino-pentanoylamino]-N-((1S,2S)-1-{(1S,2S)-1-[(S)-1-carboxy-2-(1H-indol-3-yl)-ethylcarbamoyl]-2-methyl-butylcarbamoyl}-2-methyl-butyl)-succinamic acid] | 14
CC[C@H](C)[C@H](NC(=O)[C@H](CC(=O)O)NC(=O)[C@H](CCC(=O)O)NC(=O)[C@H](NC(C)=O)C(c1ccccc1)c1ccccc1)C(=O)N[C@H](C(=O)N[C@@H](Cc1c[nH]c2ccccc12)C(=O)O)[C@@H](C)CC [(S)-4-((S)-2-Acetylamino-3,3-diphenyl-propionylamino)-4-[(S)-2-carboxy-1-((1S,2S)-1-{(1S,2S)-1-[(S)-1-carboxy-2-(1H-indol-3-yl)-ethylcarbamoyl]-2-methyl-butylcarbamoyl}-2-methyl-butylcarbamoyl)-ethylcarbamoyl]-butyric acid] (Ac-[dDip]EDIIW-OH) | 130
CC[C@H](C)[C@H](NC(=O)[C@H](CCC(=O)O)NC(=O)[C@H](CC(C)C)NC(=O)[C@@H](NC(C)=O)C(c1ccccc1)c1ccccc1)C(=O)N[C@H](C(=O)N[C@@H](Cc1c[nH]c2ccccc12)C(=O)O)[C@@H](C)CC [(S)-4-[(S)-2-((S)-2-Acetylamino-3,3-diphenyl-propionylamino)-4-methyl-pentanoylamino]-4-((1S,2S)-1-{(1S,2S)-1-[(S)-1-carboxy-2-(1H-indol-3-yl)-ethylcarbamoyl]-2-methyl-butylcarbamoyl}-2-methyl-butylcarbamoyl)-butyric acid] (Ac-[Dip]LEIIW-OH) | 430
CC[C@H](C)[C@H](NC(=O)[C@H](CCC(=O)O)NC(=O)[C@H](CC(=O)O)NC(=O)[C@H](CC(C)C)NC(=O)[C@H](NC(C)=O)C(c1ccccc1)c1ccccc1)C(=O)N[C@@H](Cc1c[nH]c2ccccc12)C(=O)O [(S)-4-{(S)-2-[(S)-2-((S)-2-Acetylamino-3,3-diphenyl-propionylamino)-4-methyl-pentanoylamino]-3-carboxy-propionylamino}-4-{(1S,2S)-1-[(S)-1-carboxy-2-(1H-indol-3-yl)-ethylcarbamoyl]-2-methyl-butylcarbamoyl}-butyric acid] (Ac-[dDip]LDEIW-OH) | 450
CC[C@H](C)[C@H](NC(=O)[C@H](CC(=O)O)NC(=O)[C@H](CC(C)C)NC(=O)[C@@H](NS(C)(=O)=O)C(c1ccccc1)c1ccccc1)C(=O)N[C@H](C(=O)N[C@@H](Cc1c[nH]c2ccccc12)C(=O)O)[C@@H](C)CC [(S)-N-((1S,2S)-1-{(1S,2S)-1-[(S)-1-Carboxy-2-(1H-indol-3-yl)-ethylcarbamoyl]-2-methyl-butylcarbamoyl}-2-methyl-butyl)-3-[(S)-2-((S)-2-methanesulfonylamino-3,3-diphenyl-propionylamino)-4-methyl-pentanoylamino]-succinamic acid] (Ms-[Dip]LDIIW-OH) | 2100

Source: BindingDB's records for doi:10.1021/jm00015a003 (Warner-Lambert, 1995)
